According to US20090197893A1 (Bristol-Myers Squibb Company, priority 2005, published 2009):
Like-named read-outs stand apart in the source and are kept apart here.

Tests used:
[1] = test system: wild-type BCR-ABL; conditions: cited from earlier work
[2] = test system: imatinib-resistant BCR-ABL mutants; conditions: cited from earlier work
[3] = molecular target: p-glycoprotein (Homo sapiens, UniProt P08183); conditions: cited from earlier work
[4] = test system: patients with advanced CML or Ph+ ALL with imatinib resistance/intolerance; experiment: Dasatinib dose escalation clinical trial: cytogenetic response; conditions: for Cytogenetic response: CCyR / Cytogenetic response: Major CyR / Cytogenetic response: Minimal CyR / Cytogenetic response: Overall CyR / Cytogenetic response: PCyR / Cytogenetic response: Minor CyR: patients n (%)
[5] = Plasma pharmacokinetics in patients; type: in vivo, human; conditions: T315I patients; FIG. 2b
[6] = test system: patients with advanced CML or Ph+ ALL with imatinib resistance/intolerance; experiment: Dasatinib dose escalation clinical trial: hematologic response; conditions: for Hematologic response: CHR / Hematologic response: Major HR / Hematologic response: NEL / Hematologic response: Minor HR: patients n (%); for patients who responded: p=0.049
[7] = test system: CML patients; conditions: cited from earlier work; for patients who developed resistance to imatinib: 4 years of follow-up
[8] = AP (N = 11), regardless of relationship to treatment, patients n (%)
[9] = AP-CML (N = 11), patients n (%)
[10] = LBC/ALL (N = 10), patients n (%)
[11] = LBC/ALL (N = 10), regardless of relationship to treatment, patients n (%)
[12] = LBC/Ph+ ALL (N = 10), patients n (%)
[13] = MBC N = (23), regardless of relationship to treatment, patients n (%)

p-glycoprotein, sequence (P08183 whole entry): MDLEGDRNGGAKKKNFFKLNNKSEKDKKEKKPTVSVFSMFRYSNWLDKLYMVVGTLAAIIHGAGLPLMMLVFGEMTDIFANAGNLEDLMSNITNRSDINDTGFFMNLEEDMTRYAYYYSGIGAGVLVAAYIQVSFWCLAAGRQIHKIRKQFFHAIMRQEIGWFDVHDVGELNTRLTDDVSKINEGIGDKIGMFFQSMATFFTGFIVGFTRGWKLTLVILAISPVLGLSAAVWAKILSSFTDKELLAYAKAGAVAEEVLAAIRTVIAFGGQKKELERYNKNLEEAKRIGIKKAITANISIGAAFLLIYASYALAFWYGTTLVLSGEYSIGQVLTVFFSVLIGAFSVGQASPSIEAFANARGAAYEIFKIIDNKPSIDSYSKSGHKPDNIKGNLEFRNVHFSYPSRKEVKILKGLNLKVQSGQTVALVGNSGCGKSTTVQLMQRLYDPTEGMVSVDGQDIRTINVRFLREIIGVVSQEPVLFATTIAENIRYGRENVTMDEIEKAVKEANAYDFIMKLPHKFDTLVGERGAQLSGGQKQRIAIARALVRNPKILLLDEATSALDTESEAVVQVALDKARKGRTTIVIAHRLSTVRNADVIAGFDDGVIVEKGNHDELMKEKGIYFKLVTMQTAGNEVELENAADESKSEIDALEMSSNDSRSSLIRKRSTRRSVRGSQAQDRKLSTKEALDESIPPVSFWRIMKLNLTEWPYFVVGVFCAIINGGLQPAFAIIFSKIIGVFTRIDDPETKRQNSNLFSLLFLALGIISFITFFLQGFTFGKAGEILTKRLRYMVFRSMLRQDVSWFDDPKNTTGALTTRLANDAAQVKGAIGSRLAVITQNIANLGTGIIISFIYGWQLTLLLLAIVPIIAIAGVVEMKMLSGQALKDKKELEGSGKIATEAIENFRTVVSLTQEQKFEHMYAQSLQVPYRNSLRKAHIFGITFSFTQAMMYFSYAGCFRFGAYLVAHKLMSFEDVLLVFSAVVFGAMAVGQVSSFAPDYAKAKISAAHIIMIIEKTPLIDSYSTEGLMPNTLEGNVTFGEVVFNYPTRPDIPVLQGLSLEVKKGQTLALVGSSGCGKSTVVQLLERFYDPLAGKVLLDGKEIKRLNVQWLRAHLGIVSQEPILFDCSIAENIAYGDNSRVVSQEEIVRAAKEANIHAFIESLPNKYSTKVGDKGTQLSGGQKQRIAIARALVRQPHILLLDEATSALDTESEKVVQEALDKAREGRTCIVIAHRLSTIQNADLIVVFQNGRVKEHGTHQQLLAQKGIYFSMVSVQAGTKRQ

Cc1cn(-c2cc(NC(=O)c3ccc(C)c(Nc4nccc(-c5cccnc5)n4)c3)cc(C(F)(F)F)c2)cn1 [AMN107]
imatinib-resistant BCR-ABL mutants against which significantly active [2]: 32/33

Cc1nc(Nc2ncc(C(=O)Nc3c(C)cccc3Cl)s2)cc(N2CCN(CCO)CC2)n1 [dasatinib, N-(2-chloro-6-methylphenyl)-2-[[6-[4-(2-hydroxyethyl)-1-piperazinyl]-2-methyl-4-pyrimidinyl]amino]-5-thiazolecarboxamide]
substrate for p-glycoprotein [3]: not a substrate
maximum tolerated dose (35-120 mg BID cohorts): not defined
Diarrhea, Grade 1-4 (AP (N = 11), patients n (%)): 5 (45)
Dyspnea/Pulmonary edema, Grade 1-4 (AP (N = 11), patients n (%)): 3 (27)
Flushing, Grade 1-4 (AP (N = 11), patients n (%)): 3 (27)
Generalized edema, Grade 1-4 (AP (N = 11), patients n (%)): 1 (9)
Headache, Grade 1-4 (AP (N = 11), patients n (%)): 3 (27)
Nausea, Grade 1-4 (AP (N = 11), patients n (%)): 1 (9)
On-Study Myelosuppression: ANC, Grade 3 (AP (N = 11), patients n (%)): 3 (27)
On-Study Myelosuppression: Platelets, Grade 3 (AP (N = 11), patients n (%)): 3 (27)
Periorbital edema, Grade 1-4 (AP (N = 11), patients n (%)): 1 (9)
Peripheral edema, Grade 1-4 (AP (N = 11), patients n (%)): 3 (27)
Rash, Grade 1-4 (AP (N = 11), patients n (%)): 5 (45)
Vomiting, Grade 1-4 (AP (N = 11), patients n (%)): 1 (9)
Elevated ALT, Grade 1-4 [8]: 8 (73)
Elevated ALT, Grade 3-4 [8]: 1 (9)
Elevated AST, Grade 1-4 [8]: 7 (64)
Elevated Total bilirubin, Grade 1-4 [8]: 2 (18)
Elevated creatinine, Grade 1-4 [8]: 2 (18)
Hypocalcemia, Grade 1-4 [8]: 8 (73)
Hypocalcemia, Grade 3-4 [8]: 2 (18)
Hypomagnesemia, Grade 1-4 [8]: 5 (45)
Grade 3 or 4 neutropenia on treatment (AP, 9/11 patients): 82%
grade 3/4 thrombocytopenia (AP, 9/11 patients): 82%
On-Study Myelosuppression: ANC, Grade 4 [9]: 6 (55)
On-Study Myelosuppression: Platelets, Grade 4 [9]: 6 (55)
Diarrhea, Grade 1-4 [10]: 2 (20)
Dyspnea/Pulmonary edema, Grade 1-4 [10]: 1 (10)
Generalized edema, Grade 1-4 [10]: 1 (10)
Nausea, Grade 1-4 [10]: 1 (10)
Periorbital edema, Grade 1-4 [10]: 1 (10)
Peripheral edema, Grade 1-4 [10]: 1 (10)
Pleural effusion, Grade 1-4 [10]: 2 (20)
Rash, Grade 1-4 [10]: 1 (10)
Vomiting, Grade 1-4 [10]: 1 (10)
Elevated ALT, Grade 1-4 [11]: 7 (70)
Elevated AST, Grade 1-4 [11]: 9 (90)
Elevated Total bilirubin, Grade 1-4 [11]: 5 (50)
Elevated creatinine, Grade 1-4 [11]: 6 (60)
Hypocalcemia, Grade 1-4 [11]: 7 (70)
Hypocalcemia, Grade 3-4 [11]: 3 (30)
Hypomagnesemia, Grade 1-4 [11]: 3 (30)
On-Study Myelosuppression: ANC, Grade 3 [12]: 2 (20)
On-Study Myelosuppression: ANC, Grade 4 [12]: 6 (60)
On-Study Myelosuppression: Platelets, Grade 3 [12]: 0
On-Study Myelosuppression: Platelets, Grade 4 [12]: 7 (70)
grade 3/4 thrombocytopenia (LBC/Ph+ ALL, 7/10 patients): 70%
Grade 3 or 4 neutropenia on treatment (LBC/Ph+ ALL, 8/10 patients): 80%
Diarrhea, Grade 1-4 (MBC (N = 23), patients n (%)): 5 (22)
Diarrhea, Grade 3-4 (MBC (N = 23), patients n (%)): 1 (4)
Dyspnea/Pulmonary edema, Grade 1-4 (MBC (N = 23), patients n (%)): 2 (9)
Dyspnea/Pulmonary edema, Grade 3-4 (MBC (N = 23), patients n (%)): 2 (9)
Flushing, Grade 1-4 (MBC (N = 23), patients n (%)): 1 (4)
Headache, Grade 1-4 (MBC (N = 23), patients n (%)): 1 (4)
Nausea, Grade 1-4 (MBC (N = 23), patients n (%)): 4 (17)
On-Study Myelosuppression: ANC, Grade 3 (MBC (N = 23), patients n (%)): 2 (9)
On-Study Myelosuppression: ANC, Grade 4 (MBC (N = 23), patients n (%)): 20 (87)
On-Study Myelosuppression: Platelets, Grade 3 (MBC (N = 23), patients n (%)): 2 (9)
On-Study Myelosuppression: Platelets, Grade 4 (MBC (N = 23), patients n (%)): 17 (74)
Pericardial effusion, Grade 1-4 (MBC (N = 23), patients n (%)): 3 (13)
Pericardial effusion, Grade 3-4 (MBC (N = 23), patients n (%)): 2 (9)
Periorbital edema, Grade 1-4 (MBC (N = 23), patients n (%)): 2 (9)
Peripheral edema, Grade 1-4 (MBC (N = 23), patients n (%)): 5 (22)
Pleural effusion, Grade 1-4 (MBC (N = 23), patients n (%)): 8 (35)
Pleural effusion, Grade 3-4 (MBC (N = 23), patients n (%)): 3 (13)
Rash, Grade 1-4 (MBC (N = 23), patients n (%)): 2 (9)
Rectal hemorrhage, Grade 1-4 (MBC (N = 23), patients n (%)): 2 (9)
Rectal hemorrhage, Grade 3-4 (MBC (N = 23), patients n (%)): 2 (9)
Tumor lysis syndrome, Grade 1-4 (MBC (N = 23), patients n (%)): 2 (9)
Tumor lysis syndrome, Grade 3-4 (MBC (N = 23), patients n (%)): 2 (9)
Vomiting, Grade 1-4 (MBC (N = 23), patients n (%)): 2 (9)
Elevated ALT, Grade 1-4 [13]: 13 (57)
Elevated AST, Grade 1-4 [13]: 13 (57)
Elevated Total bilirubin, Grade 1-4 [13]: 10 (43)
Elevated Total bilirubin, Grade 3-4 [13]: 4 (17)
Elevated creatinine, Grade 1-4 [13]: 12 (52)
Hypocalcemia, Grade 1-4 [13]: 21 (91)
Hypocalcemia, Grade 3-4 [13]: 6 (26)
Hypomagnesemia, Grade 3-4 [13]: 1 (4)
grade 3/4 thrombocytopenia (MBC, 19/23 patients): 83%
Grade 3 or 4 neutropenia on treatment (MBC, 22/23 patients): 96%
severe (grade 4) myelosuppression (advanced phase CML patients): about 70%
patients removed from the study due to a drug-related toxicity (all patients): no patient
Grade 3/4 non-hematologic adverse events (all patients, 9/44): 20%
non-malignant pleural effusions (often in the absence of other edema): 10 patients
Cytogenetic response: CCyR ([4]; AP CML n = 11): 2 (18)
Cytogenetic response: Major CyR ([4]; AP CML n = 11): 3 (27)
Cytogenetic response: Minimal CyR ([4]; AP CML n = 11): 1 (9)
Cytogenetic response: Overall CyR ([4]; AP CML n = 11): 4 (36)
Cytogenetic response: PCyR ([4]; AP CML n = 11): 1 (9)
Major cytogenetic responses ([4]; AP patients, 3/11): 27%
Cytogenetic response: CCyR ([4]; LBC-CML/ALL n = 10): 3 (30)
Cytogenetic response: Major CyR ([4]; LBC-CML/ALL n = 10): 8 (80)
Cytogenetic response: Minor CyR ([4]; LBC-CML/ALL n = 10): 1 (10)
Cytogenetic response: Overall CyR ([4]; LBC-CML/ALL n = 10): 9 (90)
Cytogenetic response: PCyR ([4]; LBC-CML/ALL n = 10): 5 (50)
MCyR rate ([4]; LBC/Ph+ ALL patients, 8/10): 80%
overall cytogenetic response rate ([4]; LBC/Ph+ ALL patients, 9/10): 90%
Cytogenetic responses ([4]; MBC patients, 12/23): 52%
Cytogenetic response: CCyR ([4]; MBC-CML n = 23): 6 (26)
Cytogenetic response: Major CyR ([4]; MBC-CML n = 23): 8 (35)
Cytogenetic response: Minimal CyR ([4]; MBC-CML n = 23): 2 (9)
Cytogenetic response: Minor CyR ([4]; MBC-CML n = 23): 2 (9)
Cytogenetic response: Overall CyR ([4]; MBC-CML n = 23): 12 (52)
Cytogenetic response: PCyR ([4]; MBC-CML n = 23): 2 (9)
Cytogenetic response: CCyR ([4]; Total N = 44): 11 (25)
Cytogenetic response: Major CyR ([4]; Total N = 44): 19 (43)
Cytogenetic response: Minimal CyR ([4]; Total N = 44): 3 (7)
Cytogenetic response: Minor CyR ([4]; Total N = 44): 3 (7)
Cytogenetic response: Overall CyR ([4]; Total N = 44): 25 (57)
Cytogenetic response: PCyR ([4]; Total N = 44): 8 (18)
CCyR ([4]; total patient population, 11/44): 25%
major CyR (CCyR plus PCyR) ([4]; total patient population, 19/44): 43%
CyR ([4]; total patient population, 25/44): 57%
serum levels [5]: adequate
Hematologic response: CHR ([6]; AP CML n = 11): 5 (45)
Hematologic response: Major HR ([6]; AP CML n = 11): 9 (81)
Hematologic response: NEL ([6]; AP CML n = 11): 4 (36)
patients who achieved a major HR remain on study ([6]; AP cohort, 9/11, median of 8 months (range 2-13 months)): 81%
major HR confirmed after 4 weeks ([6]; AP patients, 6): 55%
major HR ([6]; AP patients, 9/11): 81%
Hematologic response: CHR ([6]; LBC-CML/ALL n = 10): 7 (70)
Hematologic response: Major HR ([6]; LBC-CML/ALL n = 10): 8 (80)
Hematologic response: NEL ([6]; LBC-CML/ALL n = 10): 1 (10)
major HR confirmed after 4 weeks ([6]; LBC/Ph+ ALL, 5): 50%
major HR rate ([6]; LBC/Ph+ ALL, 8/10): 80%
major HR confirmed after 4 weeks ([6]; MBC patients, 7): 30%
major HR ([6]; MBC patients, 14/23): 61%
patients who remain on the study ([6]; MBC, 6 of 23, follow-up ranging 5-12 months): 26%
Hematologic response: CHR ([6]; MBC-CML n = 23): 8 (35)
Hematologic response: Major HR ([6]; MBC-CML n = 23): 14 (61)
Hematologic response: Minor HR ([6]; MBC-CML n = 23): 4 (17)
Hematologic response: NEL ([6]; MBC-CML n = 23): 6 (26)
patients who failed to meet the criteria for major or minor hematologic response ([6]; Nine of the 44 patients): 20%
Hematologic response: CHR ([6]; Total N = 44): 20 (45)
Hematologic response: Major HR ([6]; Total N = 44): 31 (70)
Hematologic response: Minor HR ([6]; Total N = 44): 4 (9)
Hematologic response: NEL ([6]; Total N = 44): 11 (25)
patients who responded ([6]; complex karyotypes, 17 of 25 patients): 68%
relapsed within 6 months ([6]; lymphoid blast crisis or Ph+ ALL): all but one patient
patients with durable responses for 10 months or longer ([6]; of the 8 Myeloid BC patients who achieved CHR): 3
patients who responded ([6]; simple Ph karyotypes, 17 of 18 patients): 94%
CHR ([6]; total patient population, 20/44): 45%
major HR ([6]; total patient population, 31/44): 70%

Cc1ccc(NC(=O)c2ccc(CN3CCN(C)CC3)cc2)cc1Nc1nccc(-c2cccnc2)n1 [imatinib]
patients who developed resistance to imatinib ([7]; AP CML patients): 75%
patients who developed resistance to imatinib ([7]; BC patients): 95%
estimated 2-year incidence of resistance ([7]; blastic phase): 80%
estimated 2-year incidence of resistance ([7]; chronic phase post-interferon-α failure): 10%
